Results published in PubChem BioAssay (NCI).
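The compound was tested at five concentrations on cells cultured in 96-well plates, with a 48-hour exposure period. TGI marks complete inhibition of growth.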

Experiments:
Assay in all cases: NCI tumour cell line growth inhibition, 48 h
[1] = system: UACC-257 melanoma
[2] = system: DLD-1 colon
[3] = system: OVCAR-3 ovarian
[4] = system: LXFL 529 NSCLC
[5] = system: SNB-78 CNS
[6] = system: CAKI-1 renal
[7] = system: SK-MEL-5 melanoma
[8] = system: COLO 205 colon
[9] = system: NCI-H226 lung
[10] = system: HOP-62 NSCLC
[11] = system: EKVX NSCLC
[12] = system: K-562 leukemia
[13] = system: DMS 114 small cell lung
[14] = system: SK-OV-3 ovarian
[15] = system: HT29 colon
[16] = system: OVCAR-5 ovarian
[17] = system: UO-31 renal
[18] = system: LOX IMVI melanoma
[19] = system: SF-268 CNS
[20] = system: A498 renal
[21] = system: MALME-3M melanoma
[22] = system: SK-MEL-2 melanoma
[23] = system: HOP-92 NSCLC
[24] = system: SF-539 CNS
[25] = system: KM20L2 colon
[26] = system: RXF-631 renal
[27] = system: M19-MEL melanoma
[28] = system: TK-10 renal
[29] = system: 786-0 renal
[30] = system: SK-MEL-28 melanoma
[31] = system: NCI-H522 lung
[32] = system: NCI-H460 lung
[33] = system: RXF 393 renal
[34] = system: A549 NSCLC
[35] = system: HL-60(TB) leukemia
[36] = system: SN12C renal
[37] = system: M14 melanoma
[38] = system: SW-620 colon
[39] = system: SNB-75 CNS
[40] = system: HCT-15 colon
[41] = system: HOP-18 NSCLC
[42] = system: HCT-116 colon
[43] = system: U251 CNS
[44] = system: MOLT-4 leukemia
[45] = system: OVCAR-4 ovarian
[46] = system: UACC-62 melanoma
[47] = system: HCC-2998 colon
[48] = system: XF 498 CNS
[49] = system: CCRF-CEM leukemia
[50] = system: DMS 273 small cell lung
[51] = system: SNB-19 CNS
[52] = system: IGROV1 ovarian
[53] = system: SF-295 CNS
[54] = system: ACHN renal
[55] = system: KM12 colon
[56] = system: SR leukemia
[57] = system: NCI-H23 lung
[58] = system: RPMI-8226 leukemia
[59] = system: OVCAR-8 ovarian

CC1NOC(=O)C1N=Nc1ccccc1Br (stereo not drawn)
TGI [1]: 44 µM | TGI [2]: > 100 µM | TGI [3]: 43.8 µM | TGI [4]: 31.2 µM | TGI [5]: 88.8 µM | TGI [6]: 38.4 µM | TGI [7]: 29.1 µM | TGI [8]: 35.7 µM | TGI [9]: 81.2 µM | TGI [10]: > 100 µM | TGI [11]: 80.3 µM | TGI [12]: 52.8 µM | TGI [13]: 35.7 µM | TGI [14]: 99 µM | TGI [15]: > 100 µM | TGI [16]: > 100 µM | TGI [17]: 33.1 µM | TGI [18]: > 100 µM | TGI [19]: 66 µM | TGI [20]: 51.3 µM | TGI [21]: 50.5 µM | TGI [22]: 36.7 µM | TGI [23]: 52.2 µM | TGI [24]: 51.2 µM | TGI [25]: > 100 µM | TGI [26]: > 100 µM | TGI [27]: 35.8 µM | TGI [28]: 57.4 µM | TGI [29]: 39.8 µM | TGI [30]: 79.8 µM | TGI [31]: 33.8 µM | TGI [32]: 57.9 µM | TGI [33]: 32 µM | TGI [34]: 69 µM | TGI [35]: 40.8 µM | TGI [36]: 59.5 µM | TGI [37]: 43.3 µM | TGI [38]: 30.9 µM | TGI [39]: 64 µM | TGI [40]: 84.8 µM | TGI [41]: > 100 µM | TGI [42]: 92.8 µM | TGI [43]: 46.1 µM | TGI [44]: 67 µM | TGI [45]: > 100 µM | TGI [46]: 48.1 µM | TGI [47]: > 100 µM | TGI [48]: 40 µM | TGI [49]: 74.2 µM | TGI [50]: > 100 µM | TGI [51]: > 100 µM | TGI [52]: > 100 µM | TGI [53]: > 100 µM | TGI [54]: > 100 µM | TGI [55]: 44.8 µM | TGI [56]: 58.2 µM | TGI [57]: 49.1 µM | TGI [58]: 91.6 µM | TGI [59]: 44.9 µM

O=C(O)/C=C\C(=O)c1ccc(Cl)cc1
TGI [1]: 38 µM | TGI [2]: > 100 µM | TGI [3]: > 73.3 µM | TGI [4]: 48.4 µM | TGI [5]: > 100 µM | TGI [6]: 47.2 µM | TGI [7]: > 100 µM | TGI [8]: 34.9 µM | TGI [9]: > 87.6 µM | TGI [10]: > 100 µM | TGI [11]: > 94 µM | TGI [12]: 82.8 µM | TGI [13]: 55.4 µM | TGI [14]: > 100 µM | TGI [15]: > 64.9 µM | TGI [16]: > 100 µM | TGI [17]: 99.8 µM | TGI [18]: > 61.7 µM | TGI [19]: > 71.1 µM | TGI [20]: > 100 µM | TGI [21]: 34.5 µM | TGI [22]: > 76.8 µM | TGI [23]: 47.8 µM | TGI [24]: 54.2 µM | TGI [25]: > 74.7 µM | TGI [26]: > 100 µM | TGI [27]: 55.8 µM | TGI [28]: > 100 µM | TGI [29]: > 78.7 µM | TGI [30]: 34.7 µM | TGI [31]: > 100 µM | TGI [32]: > 100 µM | TGI [33]: 40.5 µM | TGI [34]: > 100 µM | TGI [35]: 58.5 µM | TGI [36]: > 100 µM | TGI [37]: 33.2 µM | TGI [38]: 50.1 µM | TGI [39]: > 79 µM | TGI [40]: 50.2 µM | TGI [41]: > 100 µM | TGI [42]: > 58.8 µM | TGI [43]: > 100 µM | TGI [44]: 49 µM | TGI [45]: > 100 µM | TGI [46]: > 75.4 µM | TGI [47]: > 100 µM | TGI [48]: > 76.6 µM | TGI [49]: 48.7 µM | TGI [50]: > 31.6 µM | TGI [51]: > 100 µM | TGI [52]: > 100 µM | TGI [53]: > 100 µM | TGI [54]: 73.3 µM | TGI [55]: 98.9 µM | TGI [56]: 52.2 µM | TGI [57]: > 86.7 µM | TGI [58]: 66.7 µM | TGI [59]: > 100 µM
